In brackets after ≈: the same amount, converted by molar mass. Like-named read-outs stand apart in the source and are kept apart here.
Legend:
C. albicans = experiment: Broth microdilution MIC/MFC, clinical isolate; format: cell-based; details: C. albicans clinical strain
Source text: (§1) In the study of antifungal activity of the compounds 3a–3j, 15 clinical strains of different species of yeasts from Candida species, namely C. albicans, C. dubliniensis C. famata, C. inconspicua, C. krusei, C. tropicalis, C. glabrata, C. lambica, C. kefyr, C. lusitaniae, C. parapsilosis, C. guilliermondii, C. lusitaniae, C. pulcherrima and C. sake were also used. These fungi were isolated by the author (from Department of Pharmaceutical Microbiology of Medical University in Lublin, Poland) from different clinical materials, e.g., from upper respiratory tract of hospitalized patients including cancer patients (i.e., with non-small cell lung cancer or hematological malignancies). Some patients were after pre-operative or post-operative chemotherapy (treated with etoposide or cis-platin given in doses according to the standard procedures), patients with chronic hepatitis C (undergoing peginterferon and ribavirin therapy or without antiviral therapy), patients with diabetes, elderly people, aged of 65 years old or older, staying in close population, such as a care centre and people staying outside the home care. The Ethical Committee of the Medical University of Lublin approved the study protocol (No. KE-0254/75/2011). The isolates were identified by standard diagnostic methods—biochemical microtest, e.g., API 20C AUX, ID 32C, API Candida (bioMérieux) on the basis of assimilation of various substrates. All the used microbial cultures were first subcultured on nutrient agar or Sabouraud agar for bacteria and fungi, respectively. The RPMI 1640 with MOPS (for fungi) were inoculated with the suspensions of fungal species. Microbial suspensions were prepared in sterile saline (0.85% NaCl) with an optical density of 0.5 McFarland standard scale (Wiegand et al. [2008]). Samples containing examined compounds were dissolved in dimethyl sulfoxide (DMSO). Furthermore, fungal suspensions were put onto Petri dishes with solid media containing 2 mg/ml of the tested compounds followed incubation under appropriate conditions. The inhibition of microbial growth was judged by comparison with a control culture prepared without any sample tested. Nystatin (Sigma) was used as a reference antifungal compound. Subsequently MIC minimal inhibitory concentration (MIC) of the compounds was examined by the microdilution broth method, using their two-fold dilutions in RPMI 1640 broth with MOPS prepared in 96-well polystyrene plates. Final concentrations of the compounds ranged from 1000 to 0.0038 µg/ml. Microbial suspensions were prepared in sterile saline with an optical density of 0.5 McFarland standard. Next fungal suspension was added per each well containing broth and various concentrations of the examined compounds. After incubation, the MIC was assessed spectrophotometric as the lowest concentration of the samples showing complete fungal growth inhibition. Appropriate DMSO, growth and sterile controls were carried out. The medium with no tested substances was used as a control (Wiegand et al. [2008]). The minimal fungicidal concentration (MFC) are defined as the lowest concentration of the compounds that is required to kill a particular fungal species. MFC was determined by removing the culture using for MIC determinations from each well and spotting onto appropriate agar medium. The plates were incubated. The lowest compounds concentration with no visible growth observed was assessed as a fungicidal concentration. All the experiments were repeated three times and representative data are presented.
(§2) The MFC/MIC ratios were calculated in order to determine fungicidal (MFC/MIC ≤ 4) or fungistatic (MFC/MIC > 4) effect of the tested compounds (O’Donnell et al. [2010]).

C. guilliermondii = experiment: Broth microdilution MIC/MFC, clinical isolate; format: cell-based; details: C. guilliermondii clinical strain
Source text: as §1, §2

C. inconspicua = experiment: Broth microdilution MIC/MFC, clinical isolate; format: cell-based; details: C. inconspicua clinical strain
Source text: as §1, §2

C. krusei = experiment: Broth microdilution MIC/MFC, clinical isolate; format: cell-based; details: C. krusei clinical strain
Source text: as §1, §2

C. lusitaniae = experiment: Broth microdilution MIC/MFC, clinical isolate; format: cell-based; details: C. lusitaniae clinical strain
Source text: as §1, §2

C. parapsilosis = experiment: Broth microdilution MIC/MFC, clinical isolate; format: cell-based; details: C. parapsilosis clinical strain
Source text: as §1, §2

C. tropicalis = experiment: Broth microdilution MIC/MFC, clinical isolate; format: cell-based; details: C. tropicalis clinical strain
Source text: as §1, §2

[1] = system: 6-Hz psychomotor seizures; experiment: 6-Hz test; format: in vivo, mouse; details: Mus musculus, mice, 100 mg/kg ip, read-out: X/Y number of mice protected (X) per number of mice tested (Y) (converted)
Protocol: For in vivo tests that assessed anticonvulsant properties of the test compounds 3a-3j adult male Albino Swiss (CD-1) mice weighing between 18 and 22 g were used. The animals were housed in groups of ten mice per cage at room temperature of 22 ± 2 °C, under light/dark (12:12) cycle. The animals had free access to food and tap water before the experiments. The ambient temperature of the experimental room and humidity (50 ± 10%) were kept consistent throughout all the tests. For behavioral experiments the animals were selected randomly. Each experimental group consisted of 4-8 animals/dose. The experiments were performed between 9 AM and 2 PM. Immediately after the in vivo assay the animals were euthanized by cervical dislocation. All procedures were approved by the Local Ethics Committee of the Jagiellonian University in Krakow (34/2018, 1.02.2018)) and the treatment of animals was in full accordance with ethical standards laid down in respective Polish and EU regulations (Directive No. 86/609/EEC). For in vivo tests the compounds 3a-3j were prepared in 1% Tween 80 solution (POCH, Poland) and they were administered by the intraperitoneal route. Control mice received 1% Tween 80. Pentylenetetrazole (PTZ), pilocarpine hydrochloride and scopolamine butylbromide were provided by Sigma Aldrich (Poland). For the tests they were prepared in 0.9% saline (Polfa Kutno, Poland). PTZ and pilocarpine were administered 60 min after the test compound or vehicle. To assess anticonvulsant properties of the test compounds anticonvulsant screening was conducted. Four assays were used: PTZ, maximal electroshock seizure (MES), 6-Hz and pilocarpine tests. In these assays the dose of 100 mg/kg was chosen as a starting dose. If it turned out to be effective, a lower dose (30 mg/kg) was also tested. This test was performed according to (Barton et al. [2001]). It is an alternative electroshock paradigm that involves low-frequency (6 Hz), long-duration (3 s) electrical stimulation. Corneal stimulation (0.2 ms-duration monopolar rectangular pulses at 6 Hz for 3 s) was delivered by a constant-current device. During electrical stimulation mice were manually restrained and released into the observation cage immediately after current application. At the time of drug administration a drop of 0.5% tetracaine ([…] sterile solution, […] Pharmaceuticals Inc., USA) was applied into the eyes of all animals. Prior to the placement of corneal electrodes, a drop of 0.9% saline was applied on the eyes. In this model seizures manifest in 'stunned' posture associated with rearing, forelimb automatic movements and clonus, twitching of the vibrissae and Straub-tail. At the end of the seizure episode the animals resume their normal exploratory behavior. In this test protection against a seizure episode is considered as the end point and animals are considered to be protected if they resume their normal exploratory behavior within 10 s after electrical stimulation.

[2] = Candida albicans, read-out: MFC
[3] = Candida albicans, read-out: MIC
[4] = Meyerozyma guilliermondii, read-out: MFC
[5] = Meyerozyma guilliermondii, read-out: MIC
[6] = Pichia inconspicua, read-out: MFC
[7] = Pichia inconspicua, read-out: MIC
[8] = Pichia kudriavzevii, read-out: MFC
[9] = Pichia kudriavzevii, read-out: MIC
[10] = Clavispora lusitaniae, read-out: MFC
[11] = Clavispora lusitaniae, read-out: MIC
[12] = Lodderomyces parapsilosis, read-out: MFC
[13] = Lodderomyces parapsilosis, read-out: MIC
[14] = Candida tropicalis, read-out: MFC
[15] = Candida tropicalis, read-out: MIC

SMILES: Fc1ccc(-c2csc(N/N=C/C3CC3)n2)cc1 [Compound 3a, (E)-2-(2-(Cyclopropylmethylene)hydrazinyl)-4-(4-fluorophenyl)thiazole]
- MFC (C. albicans; [2]): 3.91 µg/mL (≈ 15 µM)
- MIC (C. albicans; [3]): 0.98 µg/mL (≈ 3.75 µM)
- MFC (C. guilliermondii; [4]): 31.2 µg/mL (≈ 120 µM)
- MIC (C. guilliermondii; [5]): 1.95 µg/mL (≈ 7.46 µM)
- MFC (C. inconspicua; [6]): 3.91 µg/mL (≈ 15 µM)
- MIC (C. inconspicua; [7]): 1.95 µg/mL (≈ 7.46 µM)
- MFC (C. krusei; [8]): 1.95 µg/mL (≈ 7.46 µM)
- MIC (C. krusei; [9]): 0.98 µg/mL (≈ 3.75 µM)
- MFC (C. lusitaniae; [10]): 3.91 µg/mL (≈ 15 µM)
- MIC (C. lusitaniae; [11]): 0.98 µg/mL (≈ 3.75 µM)
- MFC (C. parapsilosis; [12]): 7.81 µg/mL (≈ 29.9 µM)
- MIC (C. parapsilosis; [13]): 3.91 µg/mL (≈ 15 µM)
- MFC (C. tropicalis; [14]): 1.95 µg/mL (≈ 7.46 µM)
- MIC (C. tropicalis; [15]): 0.98 µg/mL (≈ 3.75 µM)
- responders at 100 mg/kg [1]: 25%

SMILES: Fc1ccc(-c2csc(N/N=C/C3CC3)n2)c(F)c1 [Compound 3g, (E)-2-(2-(Cyclopropylmethylene)hydrazinyl)-4-(2,4-difluorophenyl)thiazole]
- MFC (C. albicans; [2]): 1.95 µg/mL (≈ 6.98 µM)
- MIC (C. albicans; [3]): 0.48 µg/mL (≈ 1.72 µM)
- MFC (C. guilliermondii; [4]): 31.2 µg/mL (≈ 112 µM)
- MIC (C. guilliermondii; [5]): 7.81 µg/mL (≈ 28 µM)
- MFC (C. inconspicua; [6]): 1.98 µg/mL (≈ 7.09 µM)
- MIC (C. inconspicua; [7]): 0.48 µg/mL (≈ 1.72 µM)
- MFC (C. krusei; [8]): 0.48 µg/mL (≈ 1.72 µM)
- MIC (C. krusei; [9]): 0.03 µg/mL (≈ 0.107 µM)
- MFC (C. lusitaniae; [10]): 1.95 µg/mL (≈ 6.98 µM)
- MIC (C. lusitaniae; [11]): 0.48 µg/mL (≈ 1.72 µM)
- MFC (C. parapsilosis; [12]): 1.95 µg/mL (≈ 6.98 µM)
- MIC (C. parapsilosis; [13]): 0.98 µg/mL (≈ 3.51 µM)
- MFC (C. tropicalis; [14]): 0.98 µg/mL (≈ 3.51 µM)
- MIC (C. tropicalis; [15]): 0.06 µg/mL (≈ 0.215 µM)
- responders at 100 mg/kg [1]: 25%

SMILES: N#Cc1ccc(-c2csc(N/N=C/C3CC3)n2)cc1 [Compound 3h, (E)-4-(2-(2-(Cyclopropylmethylene)hydrazinyl)thiazol-4-yl)benzonitrile]
- MFC (C. albicans; [2]): 15.6 µg/mL (≈ 58.2 µM)
- MIC (C. albicans; [3]): 0.98 µg/mL (≈ 3.65 µM)
- MFC (C. guilliermondii; [4]): 3.91 µg/mL (≈ 14.6 µM)
- MIC (C. guilliermondii; [5]): 0.48 µg/mL (≈ 1.79 µM)
- MFC (C. inconspicua; [6]): 0.48 µg/mL (≈ 1.79 µM)
- MIC (C. inconspicua; [7]): 0.24 µg/mL (≈ 0.894 µM)
- MFC (C. krusei; [8]): 7.81 µg/mL (≈ 29.1 µM)
- MIC (C. krusei; [9]): 0.48 µg/mL (≈ 1.79 µM)
- MFC (C. lusitaniae; [10]): 0.98 µg/mL (≈ 3.65 µM)
- MIC (C. lusitaniae; [11]): 0.24 µg/mL (≈ 0.894 µM)
- MFC (C. parapsilosis; [12]): 31.2 µg/mL (≈ 116 µM)
- MIC (C. parapsilosis; [13]): 1.95 µg/mL (≈ 7.27 µM)
- MFC (C. tropicalis; [14]): 0.98 µg/mL (≈ 3.65 µM)
- MIC (C. tropicalis; [15]): 0.03 µg/mL (≈ 0.112 µM)
- responders at 100 mg/kg [1]: 50%

SMILES: FC(F)(F)c1ccc(-c2csc(N/N=C/C3CC3)n2)cc1 [Compound 3e, (E)-2-(2-(Cyclopropylmethylene)hydrazinyl)-4-(4-(trifluoromethyl)phenyl)thiazole]
- responders at 100 mg/kg [1]: 25%

SMILES: O=[N+]([O-])c1ccc(-c2csc(N/N=C/C3CC3)n2)cc1 [Compound 3j, (E)-2-(2-(Cyclopropylmethylene)hydrazinyl)-4-(4-nitrophenyl)thiazole]
- MFC (C. albicans; [2]): 0.48 µg/mL (≈ 1.66 µM)
- MIC (C. albicans; [3]): 0.24 µg/mL (≈ 0.832 µM)
- MFC (C. guilliermondii; [4]): 0.98 µg/mL (≈ 3.4 µM)
- MIC (C. guilliermondii; [5]): 0.24 µg/mL (≈ 0.832 µM)
- MFC (C. inconspicua; [6]): 1.95 µg/mL (≈ 6.76 µM)
- MIC (C. inconspicua; [7]): 0.98 µg/mL (≈ 3.4 µM)
- MFC (C. krusei; [8]): 0.12 µg/mL (≈ 0.416 µM)
- MIC (C. krusei; [9]): 0.06 µg/mL (≈ 0.208 µM)
- MFC (C. lusitaniae; [10]): 0.98 µg/mL (≈ 3.4 µM)
- MIC (C. lusitaniae; [11]): 0.48 µg/mL (≈ 1.66 µM)
- MFC (C. parapsilosis; [12]): 1.95 µg/mL (≈ 6.76 µM)
- MIC (C. parapsilosis; [13]): 0.48 µg/mL (≈ 1.66 µM)
- MFC (C. tropicalis; [14]): 0.015 µg/mL (≈ 0.052 µM)
- MIC (C. tropicalis; [15]): 0.015 µg/mL (≈ 0.052 µM)
- responders at 100 mg/kg [1]: 0%

SMILES: C[C@@H]1[C@H](O)[C@@H](C)/C=C/C=C/CC/C=C/C=C/C=C/C=C/C(O[C@H]2O[C@H](C)[C@@H](O)[C@H](N)[C@@H]2O)CC2O[C@](O)(CC(O)C(O)CCC(O)CC(O)CC(O)CC(=O)O[C@H]1C)CC(O)C2C(=O)O (stereo partly shown) [Nystatin, reference compound]
- MFC (C. albicans): 0.24 µg/mL (≈ 0.259 µM)
- MFC/MIC (C. albicans): 1
- MIC (C. albicans): 0.24 µg/mL (≈ 0.259 µM)
- MFC (C. guilliermondii): 0.12 µg/mL (≈ 0.13 µM)
- MFC/MIC (C. guilliermondii): 2
- MIC (C. guilliermondii): 0.06 µg/mL (≈ 0.0648 µM)
- MFC (C. inconspicua): 0.48 µg/mL (≈ 0.518 µM)
- MFC/MIC (C. inconspicua): 4
- MIC (C. inconspicua): 0.12 µg/mL (≈ 0.13 µM)
- MFC (C. krusei): 0.98 µg/mL (≈ 1.06 µM)
- MFC/MIC (C. krusei): 4
- MIC (C. krusei): 0.24 µg/mL (≈ 0.259 µM)
- MFC (C. lusitaniae): 0.24 µg/mL (≈ 0.259 µM)
- MFC/MIC (C. lusitaniae): 2
- MIC (C. lusitaniae): 0.12 µg/mL (≈ 0.13 µM)
- MFC (C. parapsilosis): 0.48 µg/mL (≈ 0.518 µM)
- MFC/MIC (C. parapsilosis): 4
- MIC (C. parapsilosis): 0.12 µg/mL (≈ 0.13 µM)
- MFC (C. tropicalis): 0.06 µg/mL (≈ 0.0648 µM)
- MFC/MIC (C. tropicalis): 4
- MIC (C. tropicalis): 0.015 µg/mL (≈ 0.0162 µM)
